From US8344181B2, “N-2 adamantanyl-2-phenoxy-acetamide derivatives as 11-beta hydroxysteroid dehydrogenase inhibitors” (Janssen Pharmaceutica N.V., priority 2004, dated 2013)

Key:
11β-HSD1 = molecular target: T1, 11β-HSD1 (Mus musculus, UniProt P50172); experiment: Cellular assay of 11β-HSD1 activity in differentiated 3T3-L1 cells; type: cell-based; conditions: 4 hour pre-incubation, 10^-5M to 10^-10M, read-out: HSD1 cellular 3T3-L1 Score
T1 construct: endogenous in cells; host or cells: 3T3-L1 (ATCC-CL-173), differentiated into adipocytes
T1 sequence (P50172 whole entry): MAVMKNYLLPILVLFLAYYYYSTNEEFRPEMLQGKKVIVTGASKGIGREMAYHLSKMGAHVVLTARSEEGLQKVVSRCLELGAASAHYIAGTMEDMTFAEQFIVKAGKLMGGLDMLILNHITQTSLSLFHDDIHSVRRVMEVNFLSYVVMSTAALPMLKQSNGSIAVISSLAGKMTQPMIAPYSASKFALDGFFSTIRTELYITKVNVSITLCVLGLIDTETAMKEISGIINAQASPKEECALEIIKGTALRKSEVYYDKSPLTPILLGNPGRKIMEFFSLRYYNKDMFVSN
Description: The effects on 11β-HSD1 activity was measured in differentiated 3T3-L1 cells and rat hepatocytes.
Mouse fibroblast 3T3-L1 cells (ATCC-CL-173) were seeded at a density of 16500 cells/ml in 12 well plates and grown for 7 days in DMEM medium (supplemented with 10% heat inactivated foetal calf serum, 2 mM glutamine and 25 mg gentamycin) at 37° C. in a humidified 5% CO2 atmosphere. Medium was refreshed twice a week. Fibroblasts were differentiated into adipocytes at 37° C. in a 5% CO2 humidified atmosphere in growth medium containing 2 μg/ml insulin, 55 μg/ml IBMX and 39.2 μg/ml dexamethasone.
Primary hepatocytes from male rats were seeded on normal Falcon 12 well plates at a density of 250000 cells/well and incubated for 16 hours at 37° C. in a 5% CO2 humidified atmosphere in DMEM-HAM's F12 medium containing 5% Nu-serum, 100 U/ml penicillin, 100 μg/ml streptomycin, 0.25 μg/ml amphotericin B, 50 μg/ml gentamycin sulfate, 5 μg/ml insulin and 392 ng/ml dexamethasone. Following a 4 hour pre-incubation with test compound, 0.5 μCi ^3H-cortisone or dehydrocorticosterone, was added to the 3T3-L1 cultures. One hour later, the medium was extracted on Extrelut^3-columns with 15 ml diethyl ether and the extract was analysed by HPLC as described above. The effects of JNJ-compounds on rat hepatocyte HSD1 activity was measured after an incubation period of 90 minutes with 0.5 μCi^3H-dehydrocorticosterone. Corticosterone formation was analysed by HPLC.
(§1) As for the enzymatic assays, the compounds to be tested were taken from a stock solution and tested at a final concentration ranging from 10^−5M to 10^−10M. From the thus obtained dose response curves, the pIC50 value was calculated and scored as follows; Score 1=pIC50 value<5, Score 2=pIC50 value in the range of 5 to 6, Score 3=pIC50 value>6. (in this table NT stands for Not Tested).

11β-HSD2 = molecular target: T2, 11β-HSD2 (Homo sapiens, UniProt P80365); experiment: Cellular assay of 11β-HSD2 activity in HepG2 cells; type: cell-based; conditions: 4 hour pre-incubation, 10^-5M to 10^-10M, read-out: HSD2 cellular HepG2 Score
T2 construct: endogenous in cells; host or cells: HepG2 (ATCC HB-8065)
T2 sequence (P80365 1-405): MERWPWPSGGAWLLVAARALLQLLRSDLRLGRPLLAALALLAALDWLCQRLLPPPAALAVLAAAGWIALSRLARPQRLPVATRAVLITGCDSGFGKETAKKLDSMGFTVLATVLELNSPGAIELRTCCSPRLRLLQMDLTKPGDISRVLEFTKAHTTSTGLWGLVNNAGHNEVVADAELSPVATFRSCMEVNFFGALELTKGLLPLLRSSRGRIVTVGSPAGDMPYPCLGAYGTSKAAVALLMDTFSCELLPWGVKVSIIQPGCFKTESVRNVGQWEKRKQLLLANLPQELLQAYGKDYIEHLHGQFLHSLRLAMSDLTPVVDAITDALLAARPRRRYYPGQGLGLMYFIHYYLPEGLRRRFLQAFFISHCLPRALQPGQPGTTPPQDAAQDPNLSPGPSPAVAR
Description: The effects on 11β-HSD2 activity was studied in HepG2 and LCC-PK1-cells HepG2-cells (ATCC HB-8065) were seeded in 12 well plates at a density of 100,000 cells/ml and grown at 37° C. in a humidified 5% CO2 atmosphere in MEM-Rega-3 medium supplemented with 10% heat inactivated foetal calf serum, 2 mM L-glutamine and sodium bicarbonate). Medium was refreshed twice a week.
Following a 4 hour pre-incubation with test compound, 0.5 μCi ^3H-cortisol or corticosterone, was added to the cultures. One hour later, the medium was extracted on Extrelut^3-columns with 15 ml diethyl ether and the extract was analysed by HPLC as described above.
as §1

Row | SMILES | IC50 (11β-HSD1) | IC50 (11β-HSD2)
1 | COC(=O)CC(=O)N[C@@]12CC3C[C@H](C1)[C@H](NC(=O)C(C)(C)Oc1ccc(Cl)cc1C)[C@@H](C3)C2 [Compound 38] | < 1000 nM | 1000 to 10000 nM
2 | Cc1cc(Cl)ccc1OC(C)(C)C(=O)N[C@H]1[C@@H]2CC3C[C@H]1C[C@](N1CCCC1=O)(C3)C2 [Compound 39] | < 1000 nM | < 1000 nM
3 | Cc1cc(Cl)ccc1OC(C)(C)C(=O)N[C@H]1[C@@H]2CC3C[C@H]1C[C@](NC(=O)CN(C)CCO)(C3)C2 [Compound 42] | < 1000 nM | 1000 to 10000 nM
4 | COc1cccc(NC(C)(C)C(=O)N[C@H]2[C@@H]3CC4C[C@H]2C[C@](O)(C4)C3)c1 [Compound 53] | < 1000 nM | > 10000 nM
5 | Cc1cccc(NC(C)(C)C(=O)N[C@H]2[C@@H]3CC4C[C@H]2C[C@](O)(C4)C3)c1 [Compound 55] | < 1000 nM | > 10000 nM
6 | COc1cccc(NC(C)(C)C(=O)N[C@H]2[C@@H]3CC4C[C@H]2C[C@](F)(C4)C3)c1 [Compound 56] | < 1000 nM | > 10000 nM
7 | Cc1cccc(NC(C)(C)C(=O)N[C@H]2[C@@H]3CC4C[C@H]2C[C@](F)(C4)C3)c1 [Compound 57] | < 1000 nM | > 10000 nM
8 | CC(C)(Nc1cccc(C(F)(F)F)c1)C(=O)N[C@H]1[C@@H]2CC3C[C@H]1C[C@](O)(C3)C2 [Compound 60] | < 1000 nM | > 10000 nM
9 | CC(C)(Nc1cccc(C(F)(F)F)c1)C(=O)N[C@H]1[C@@H]2CC3C[C@H]1C[C@](F)(C3)C2 [Compound 61] | < 1000 nM | > 10000 nM
10 | Cc1cc(Cl)ccc1OC(C)(C)C(=O)N[C@H]1[C@@H]2CC3C[C@H]1C[C@](NC(=O)CC(C)C)(C3)C2 [Compound 64] | < 1000 nM | 1000 to 10000 nM
11 | CC(=O)N[C@@]12CC3C[C@H](C1)[C@H](NC(=O)C(C)(C)Nc1cccc(C(F)(F)F)c1)[C@@H](C3)C2 [Compound 65] | < 1000 nM | > 10000 nM
12 | COc1cccc(NC(C)(C)C(=O)N[C@H]2[C@@H]3CC4C[C@H]2C[C@](NC(C)=O)(C4)C3)c1 [Compound 66] | < 1000 nM | 1000 to 10000 nM
13 | CC(=O)N[C@@]12CC3C[C@H](C1)[C@H](NC(=O)C(C)(C)Nc1cccc(C)c1)[C@@H](C3)C2 [Compound 70] | < 1000 nM | 1000 to 10000 nM
14 | Cc1cc(Cl)ccc1OC(C)(C)C(=O)N[C@H]1[C@@H]2CC3C[C@H]1C[C@](NC(=O)CN(C)C)(C3)C2 [Compound 72] | < 1000 nM | 1000 to 10000 nM
15 | Cc1cc(Cl)ccc1OC(C)(C)C(=O)N[C@H]1[C@@H]2CC3C[C@H]1C[C@](NC(=O)CN1CCOCC1)(C3)C2 [Compound 73] | < 1000 nM | 1000 to 10000 nM
16 | CC(=O)N[C@@]12CC3C[C@H](C1)[C@H](NC(=O)C(C)(C)Nc1ccc(Br)cc1C)[C@@H](C3)C2 [Compound 74] | < 1000 nM | 1000 to 10000 nM
17 | COC(=O)c1cccc(NC(C)(C)C(=O)N[C@H]2[C@@H]3CC4C[C@H]2C[C@](O)(C4)C3)c1 [Compound 75] | < 1000 nM | > 10000 nM
18 | COc1ccc(NC(C)(C)C(=O)N[C@H]2[C@@H]3CC4C[C@H]2C[C@](NC(C)=O)(C4)C3)cc1 [Compound 76] | < 1000 nM | > 10000 nM
19 | CC(C)(Nc1cccc(C(F)(F)F)c1)C(=O)N[C@H]1[C@@H]2CC3C[C@H]1C[C@](NC(=O)CCl)(C3)C2 [Compound 80] | < 1000 nM | 1000 to 10000 nM
20 | CC(C)(Oc1cccc(C(F)(F)F)c1)C(=O)N[C@H]1[C@@H]2CC3C[C@H]1C[C@](NS(C)(=O)=O)(C3)C2 [Compound 83] | < 1000 nM | 1000 to 10000 nM

More lines, now with the values ahead:

Row | IC50 (11β-HSD1) | IC50 (11β-HSD2) | SMILES
21 | < 1000 nM | 1000 to 10000 nM | Cc1ccccc1NC(C)(C)C(=O)N[C@H]1[C@@H]2CC3C[C@H]1C[C@](F)(C3)C2 [Compound 35]
22 | < 1000 nM | > 10000 nM | CC(=O)N[C@@]12CC3C[C@H](C1)[C@H](NC(=O)C(C)(C)Nc1ccc(C)cc1)[C@@H](C3)C2 [Compound 37]
23 | < 1000 nM | 1000 to 10000 nM | Cc1ccc(OC(C)(C)C(=O)N[C@H]2[C@@H]3CC4C[C@H]2C[C@](OC(=O)CN2CCOCC2)(C4)C3)cc1 [Compound 41]
24 | < 1000 nM | < 1000 nM | CC(C)(Oc1cccc(Cl)c1)C(=O)N[C@H]1[C@@H]2CC3C[C@H]1C[C@](O)(C3)C2 [Compound 43]
25 | < 1000 nM | 1000 to 10000 nM | CN(C)CCCO[C@@]12CC3C[C@H](C1)[C@H](NC(=O)C(C)(C)Oc1cccc(Cl)c1)[C@@H](C3)C2 [Compound 44]
26 | < 1000 nM | 1000 to 10000 nM | CCOC(=O)N[C@@]12CC3C[C@H](C1)[C@H](NC(=O)C(C)(C)Oc1ccc(Cl)cc1C)[C@@H](C3)C2 [Compound 45]
27 | < 1000 nM | > 10000 nM | Cc1cc(Cl)ccc1OC(C)(C)C(=O)N[C@H]1[C@@H]2CC3C[C@H]1C[C@](N(C)C)(C3)C2 [Compound 46]
28 | < 1000 nM | 1000 to 10000 nM | Cc1ccc(OC(C)(C)C(=O)N[C@H]2[C@@H]3CC4C[C@H]2C[C@](OC(=O)Nc2cccc(C)c2)(C4)C3)cc1 [Compound 47]
29 | < 1000 nM | < 1000 nM | Cc1ccc(OC(C)(C)C(=O)N[C@@H]2[C@@H]3CC4C[C@H]2C[C@](OCc2ccccc2)(C4)C3)cc1 [Compound 48]
30 | 1000 to 10000 nM | > 10000 nM | Cc1ccc(OC(C)(C)C(=O)NC2C3CC4CC2CC(c2ccccc2)(C4)C3)cc1 (centres unmarked) [Compound 49]
31 | < 1000 nM | 1000 to 10000 nM | Cc1cc(Cl)ccc1OC(C)(C)C(=O)N[C@H]1[C@@H]2CC3C[C@H]1C[C@](C(=O)O)(C3)C2 [Compound 50]
32 | < 1000 nM | 1000 to 10000 nM | Cc1ccc(OC(C)(C)C(=O)N[C@H]2[C@@H]3CC4C[C@H]2C[C@](OCc2ccccc2)(C4)C3)cc1 [Compound 52]
33 | < 1000 nM | > 10000 nM | CC(C)(Nc1ccccc1)C(=O)N[C@H]1[C@@H]2CC3C[C@H]1C[C@](O)(C3)C2 [Compound 54]
34 | < 1000 nM | > 10000 nM | COc1ccc(NC(C)(C)C(=O)N[C@H]2[C@@H]3CC4C[C@H]2C[C@](O)(C4)C3)cc1 [Compound 58]
35 | < 1000 nM | > 10000 nM | COc1ccc(NC(C)(C)C(=O)N[C@H]2[C@@H]3CC4C[C@H]2C[C@](F)(C4)C3)cc1 [Compound 59]
36 | < 1000 nM | > 10000 nM | Cc1ccc(NC(C)(C)C(=O)N[C@H]2[C@@H]3CC4C[C@H]2C[C@](F)(C4)C3)cc1 [Compound 62]
37 | < 1000 nM | < 1000 nM | CCC(=O)N[C@@]12CC3C[C@H](C1)[C@H](NC(=O)C(C)(C)Oc1ccc(Cl)cc1C)[C@@H](C3)C2 [Compound 63]
38 | < 1000 nM | 1000 to 10000 nM | CC(C)(Oc1ccc(Cl)cc1)C(=O)N[C@H]1[C@@H]2CC3C[C@H]1C[C@](O)(C3)C2 [Compound 67]
39 | < 1000 nM | > 10000 nM | CC(C)(Nc1ccccc1)C(=O)N[C@H]1[C@@H]2CC3C[C@H]1C[C@](F)(C3)C2 [Compound 68]
40 | < 1000 nM | 1000 to 10000 nM | CC(C)(Oc1ccccc1)C(=O)N[C@H]1[C@@H]2CC3C[C@H]1C[C@](O)(C3)C2 [Compound 69]
41 | < 1000 nM | > 10000 nM | Cc1ccc(S(=O)(=O)N[C@@]23CC4C[C@H](C2)[C@H](NC(=O)C(C)(C)Oc2ccc(Cl)cc2C)[C@@H](C4)C3)cc1 [Compound 77]
42 | < 1000 nM | > 10000 nM | CC(C)(Oc1cccc(C(F)(F)F)c1)C(=O)N[C@H]1[C@@H]2CC3C[C@H]1C[C@](N)(C3)C2 [Compound 81]
43 | < 1000 nM | > 10000 nM | CC(C)(Oc1cccc(Cl)c1)C(=O)N[C@H]1[C@@H]2CC3C[C@H]1C[C@](N)(C3)C2 [Compound 85]
